Patent US9814238B2, “Herbicide composition” (ISHIHARA SANGYO KAISHA, LTD., priority 2013, dated 2017)

Tests used:
Type in all cases: in vivo
[1] = test system: large crabgrass (Digitaria sanquinalis L.); assay: Test Example 1: foliar treatment of large crabgrass in vat, visual growth inhibition rate; settings: foliar treatment at 7-leaf stage, 24th day after treatment
Excerpt: (§1) When the herbicidal activity in a case where two active ingredients are combined, is larger than the simple sum of the respective herbicidal activities of the two active ingredients (the expected activity), it is called a synergistic effect. The activity expected by the combination of two active ingredients can be calculated as follows (Colby S. R., “Weed”, vol. 15, p. 20-22, 1967). E=α+β−(α×β÷100) where α: growth inhibition rate when treated with x (g/ha) of herbicide X,
(§2) β: growth inhibition rate when treated with y (g/ha) of herbicide Y,
(§3) E: growth inhibition rate expected when treated with x (g/ha) of herbicide X and y (g/ha) of herbicide Y.
(§4) That is, when the actual growth inhibition rate (measured value) is larger than the growth inhibition rate by the above calculation (calculated value), the activity by the combination can be regarded as showing a synergistic effect.
Upland field soil was put into a 1/1,000,000 ha vat, and seeds of large crabgrass (Digitaria sanquinalis L.) were sown. When the large crabgrass reached 7-leaf stage, predetermined amounts of an emulsifiable concentrate (EC formulation) containing tiafenacil prepared by a conventional method, water dispersible granules containing flazasulfuron as an active ingredient (WG formulation, tradename: SHIBAGEN DF manufactured by Ishihara Sangyo Kaisha, Ltd.), were diluted with water in an amount corresponding to 300 L/ha, and applied for foliar treatment by a small sprayer.
(§5) On the 24th day after treatment, the state of growth of the large crabgrass was visually observed to determine the growth inhibition rate in accordance with the following evaluation standard. The growth inhibition rate (%) (measured value) and the growth inhibition rate (%) (calculated value) calculated by the Colby's formula are shown in Table 1. Growth inhibition rate (%)=0 (equivalent to the non-treated area) to 100 (complete kill)

[2] = test system: large crabgrass (Digitaria sanguinalis L.); assay: Test Example 2: soil treatment of large crabgrass in pot, visual growth inhibition rate; settings: soil treatment day after sowing, 14th day after treatment
Excerpt: as §1, §2, §3, §4
Upland field soil was put into a 1/500,000 ha pot, and seeds of large crabgrass (Digitaria sanguinalis L.) were sown. […]
as §5, with “14th” for “24th”, “same” for “following”, “standard as in Test Example 1.” for “standard.”, “2.” for “1. Growth inhibition rate (%)=0 (equivalent to the non-treated area) to 100 (complete kill)”

[3] = test system: common dayflower (Commelina communis L.); assay: Test Example 3: foliar treatment of common dayflower in orchard field, visual growth inhibition rate; settings: foliar treatment at height 35 to 40 cm, 23rd day after treatment
Excerpt: as §1, §2, §3, §4
(§6) An orchard field was compartmentalized into 0.5 square meter per test section. When common dayflower (Commelina communis L.) which naturally grew thereafter reached a height of from 35 to 40 cm, predetermined amounts of a microemulsion (ME formulation) containing tiafenacil prepared by a conventional method and WG formulation containing flazasulfuron as an active ingredient (the same as in Test Example 1) were diluted with water (in an amount corresponding to 300 L/ha) containing 0.5 vol % of an agricultural adjuvant (tradename: Destiny HC, manufactured by Winfield Solutions LLC.) and applied for foliar treatment by a small sprayer.
(§7) On the 23rd day after treatment, the state of growth of the common dayflower was visually observed to determine the growth inhibition rate in accordance with the same evaluation standard as in Test Example 1. The growth inhibition rate (%) (measured value) and the growth inhibition rate (%) (calculated value) calculated by the Colby's formula are shown in Table 3.

[4] = test system: large crabgrass (Digitaria sanguinalis L.); assay: Test Example 4: foliar treatment of large crabgrass in orchard field, visual growth inhibition rate; settings: foliar treatment at height 50 to 55 cm, 23rd day after treatment
Excerpt: as §1, §2, §3, §4
as §6, with “large crabgrass (Digitaria sanguinalis” for “common dayflower (Commelina communis”, “50” for “35”, “55” for “40”, “ME formulation” for “a microemulsion (ME formulation)”, “as an active ingredient (the same as in Test Example 3)” for “prepared by a conventional method”
as §7, with “4.” for “3.”

[5] = test system: common horsetail (Equisetum arvense); assay: Test Example 5: foliar treatment of common horsetail in orchard field, visual growth inhibition rate; settings: foliar treatment at height 15 to 20 cm, 23rd day after treatment
Excerpt: as §1, §2, §3, §4
as §6, with “section,” for “section.”, “horsetail (Equisetum arvense)” for “dayflower (Commelina communis L.)”, “15” for “35”, “20” for “40”, “ME formulation” for “a microemulsion (ME formulation)”, “as an active ingredient (the same as in Test Example 3)” for “prepared by a conventional method”
as §7, with “horsetail” for “dayflower”, “5.” for “3.”

| SMILES | Growth inhibition rate (%) of large crabgrass, Measured value ([1]; dose 12.5 g/ha) | Growth inhibition rate (%) of large crabgrass, Measured value ([1]; dose 25 g/ha) | Growth inhibition rate (%) of large crabgrass, Measured value ([2]; dose 50 g/ha) | Growth inhibition rate (%) of common dayflower, Measured value ([3]; dose 25 g/ha) | Growth inhibition rate (%) of common dayflower, Measured value ([3]; dose 50 g/ha) | Growth inhibition rate (%) of large crabgrass, Measured value ([4]; dose 25 g/ha) | Growth inhibition rate (%) of large crabgrass, Measured value ([4]; dose 50 g/ha) | Growth inhibition rate (%) of large crabgrass, Measured value ([4]; dose 100 g/ha) | Growth inhibition rate (%) of common horsetail, Measured value ([5]; dose 25 g/ha) | Growth inhibition rate (%) of common horsetail, Measured value ([5]; dose 50 g/ha) | Growth inhibition rate (%) of common horsetail, Measured value ([5]; dose 100 g/ha) | Growth inhibition rate (%) of common horsetail, Measured value ([5]; dose 150 g/ha) | inhibition at 20 g/ha ([1]; Digitaria, dose 20 g/ha, read-out: Growth inhibition rate (%) of large crabgrass, Measured value) | inhibition at 20 g/ha ([2]; Digitaria sanguinalis, dose 20 g/ha, read-out: Growth inhibition rate (%) of large crabgrass, Measured value) | inhibition at 20 g/ha ([3]; Commelina communis, dose 20 g/ha, read-out: Growth inhibition rate (%) of common dayflower, Measured value) | inhibition at 40 g/ha ([3]; Commelina communis, dose 40 g/ha, read-out: Growth inhibition rate (%) of common dayflower, Measured value) | inhibition at 40 g/ha ([4]; Digitaria sanguinalis, dose 40 g/ha, read-out: Growth inhibition rate (%) of large crabgrass, Measured value) | inhibition at 20 g/ha ([5]; Equisetum arvense, dose 20 g/ha, read-out: Growth inhibition rate (%) of common horsetail, Measured value) | inhibition at 40 g/ha ([5]; Equisetum arvense, dose 40 g/ha, read-out: Growth inhibition rate (%) of common horsetail, Measured value) |
| --- | --- | --- | --- | --- | --- | --- | --- | --- | --- | --- | --- | --- | --- | --- | --- | --- | --- | --- | --- |
| COC(=O)CCNC(=O)C(C)Sc1cc(-n2c(=O)cc(C(F)(F)F)n(C)c2=O)c(F)cc1Cl (racemic) [Tiafenacil, methyl 3-((2RS)-2-{2-chloro-4-fluoro-5-[1,2,3,6-tetrahydro-3-methyl-2,6-dioxo-4-(trifluoromethyl)pyrimidin-1(6H)-yl]phenylthio}propionamido]propionate] | 20% | 30% | 65% | 50% | 60% | 5% | 5% | 8% | 63% | 63% | 68% | 55% | – | – | – | – | – | – | – |
| COc1cc(OC)nc(NC(=O)NS(=O)(=O)c2ncccc2C(F)(F)F)n1 [Flazasulfuron, 1-(4,6-dimethoxypyrimidin-2-yl)-3-(3-trifluoromethyl-2-pyridylsulfonyl)urea] | – | – | – | – | – | – | – | – | – | – | – | – | 40% | 60% | 45% | 40% | 33% | 55% | 53% |
